What was measured:
[1] = Exposure of the solid salt to the atmosphere (hygroscopicity); format: physicochemical; conditions: 10 minute exposure of a small amount to the atmosphere, diHCl salt
Procedure: Concentration (rotary evaporator at ambient temperature) provided a crude oily residue which was triturated with hexane producing a white solid. The hexane was removed (via pipette suction) and replaced with dry THE (25 ml). After an additional 10 minutes of trituration, the THF was removed and replaced with dry hexane (25 ml). After an additional 10 minutes of trituration, the hexane was removed and the resulting white solid was dried in vacuo over P2O5 providing 1.95 grams of diHCl salt of PrC-210 (88%).
In Reaction J: 34 ml of HCl in methanol, 6 eq. (1.25 M solution, Aldrich Cat #17935) was added to a solution of compound X, 2.5 grams, 0.007 moles dissolved in 10 mL dry methanol in a flask under argon and equipped for magnetic stirring and the reaction was stirred at room temperature for 24 hours. […] The solution was degassed by gently bubbling argon into the solution for 30 minutes. […]
In Reaction P: Compound XVI, 2.2 grams, 0.0058 moles was placed in a round-bottom flask equipped for magnetic stirring followed by 15 mL anhydrous trifluoroacetic acid (CF3COOH, Aldrich #8.08260). The flask was fitted with a condenser and the solution was refluxed for 5 hours whereupon it was determined that the reaction was complete using TLC by observing the disappearance of starting material and the appearance of a highly polar product, which stained positive with ninhydrin. […]

[2] = tested on: male mice exposed to total body irradiation (TBI); test: Phase 2 efficacy: survival of mice dosed prior to total body irradiation (TBI) at LD100/30; format: in vivo; conditions: for median survival time / animals survived until scheduled sacrifice (Day 30) / mice found dead / mice moribund sacrificed: 1000 mg/kg oral gavage prior to TBI 9.9 Gy; for median survival time: 11 male mice per group; for body weight gain: Days 5 to 9 after TBI 9.9 Gy, compared to the vehicle group; for survival of animals through 30 days post exposure: treated prior to total body irradiation (LD100/30)
Procedure: (§1) Male mice were randomized and assessed in two phases: 1) for maximum tolerated doses (MTDs) of PrC-210, DzCH2SH, and 2Pip-2PrSH to determine dose levels for the efficacy study and 2) to evaluate the efficacy of the compounds when administered 60+5 minutes prior to exposure to total body irradiation (TBI) at an LD100/30 dose (990 cGy) (Tables 1 and 2).
(§2) For Phase 1 or 2, sterile water (vehicle), PrC-210, DzCH2SH, and 2Pip2PrSH were administered at 10 mL/kg calculated based on the most recent body weight via oral gavage. Animals were not fasted prior to administration of the compounds or vehicle. Mice in Phase 1 were administered the dose on Day 1 and mice in Phase 2 were administered the dose 60+5 minutes prior to TBI on Day 0.
Irradiation was administered once to the whole body. TBI of mice were performed using a 6 MV LINAC photon source (TrueBeam STx source). Animals were irradiated at a dose rate of up to 80 cGy/min to the midline of the animals. The source irradiated animals to 50% of the dose from anterior-posterior direction and […] from the posterior-anterior direction. Dose measurements were performed with a PTW 31010 0.1 cc Semiflex Ion chamber.
(§3) All surviving animals were observed once daily for clinical signs (e.g., unusually low or high activity, lethargy, shivering, appearance of fur, bloody and water stool, and other symptoms of moribundity) at 1-2 hours post-irradiation and/or post-dose and once daily on non-dosing days until Day 4 (Phase 1) or Day 30 (Phase 2).
In Phase 2 (Table 2), survival curves of mice treated with vehicle, PrC-210, DzCH2SH or 2Pip-PrSH prior to TBI with 9.9 Gy were measured (FIG. 1). […] Five mice were moribund sacrificed, and 6 mice were found dead. Survival in the Group 13 animals was 0% and median survival time was 8 days. In mice administered with PrC-210 before TBI (Group 14), 4 animals survived until scheduled sacrifice (Day 30) while 7 mice were moribund sacrificed. […] In mice administered with DzCH2SH before TBI (Group 15), 3 animals survived until scheduled sacrifice (Day 30) while 7 mice were moribund sacrificed, and one mouse was found dead. […] Five mice were moribund sacrificed and six mice were found dead. Survival in the Group 16 mice was 0% and median survival time was 10 days.

[3] = Phase 1 maximum tolerated dose (MTD) in mice, oral gavage; format: in vivo; conditions: 1,000 mg/kg, male mice
Procedure: as §1, §2, §3
In Phase 1 (Table 1), all animals were normal when observed and all body weights were within normal range. The dose level of 1000 mg/kg was selected for Phase 2.

[4] = tested on: mice exposed to 8 Gy (LD100) radiation; test: Protection of mice from lethal radiation (8 Gy, LD100); format: in vivo; conditions: oral gavage 15-90 minutes prior to 8 Gy (LD100), 60 days post irradiation
Procedure: The radioprotective efficacy of the thiols, prodrugs and double prodrugs according to this disclosure is assessed in mice. The compounds of the disclosure are administered via oral gavage to mice, and are compared to mice that have been administered 3-(methylamino)-2-(methylaminomethyl)propane-1-thiol (PrC-210), as well as to a control group or mice that are administered vehicle (i.e., containing no radioprotective additive).
More specifically, mice are assigned to three groups (Groups 1, 2 and 3). A control group, Group 1, is treated via oral gavage with vehicle (Lactated Ringer's and 5% dextrose, adjusted to pH 7.3 with sodium bicarbonate) 15-90 minutes prior to a dose of 8 Gy (LD100) radiation. Group 2 is treated via oral gavage with PrC-210, as a positive control, dissolved in Lactated Ringer's at a dose of 200 mg/kg 15-90 minutes prior to irradiation with 8 Gy (LD100). Group 3 is treated via oral gavage with compound 1 (PrC-210-PT) dissolved in Lactated Ringer's at a dose of 308 mg/kg 15-90 minutes prior to irradiation with 8 Gy (LD100). The mortality of the three groups is assessed for 60 days post irradiation. The experiment is repeated with doses of PrC-210 ranging from 200 mg/kg to 450 mg/kg. Molar equivalent dosages of the test compound (compound 1, Prc-210-PT) to PrC-210 are also assessed.
The experiment is repeated to assess the efficacy of compounds 2-23 as radioprotectors.

[5] = in vivo; cited from earlier work
[6] = tested on: mice exposed to whole body irradiation; test: Radiation dose required to kill 50% of mice (LD50), whole body irradiation; format: in vivo; conditions: oral gavage 60 minutes prior to whole body irradiation 2-12 Gy, 30 days
Procedure: The affect of the compounds according to the disclosure on the dose of radiation required to kill 50% of mice (LD50) is assessed.
Mice are assigned to three groups (Groups 1, 2 and 3). A control group, Group 1, is treated via oral gavage with vehicle (Lactated Ringer's and 5% dextrose, adjusted to pH 7.3 with sodium bicarbonate) 60 minutes prior to whole body irradiation (2 Gy). Group 2 is treated via oral gavage with PrC-210, as a positive control, dissolved in Lactated Ringer's at a dose of 200 mg/kg 60 minutes prior to whole body irradiation (2 Gy). Group 3 is treated via oral gavage with compound 1 (PrC-210-PT) dissolved in Lactated Ringer's at a dose of 308 mg/kg 60 minutes prior to whole body irradiation (2 Gy). The mortality of the three groups is assessed for 30 days post irradiation.
The experiment is repeated using varying radiation doses of 4, 6, 8, 10 and 12 Gy. The LD50 for each group was determined.
The experiment is repeated to assess compounds 2-23 as radioprotectors.

[7] = clinical signs after TBI 9.9 Gy, of 11 mice

Row | SMILES | signs of hygroscopicity [1] | median survival time [2] | animals survived until scheduled sacrifice (Day 30) ([2]; of 11 mice) | mice found dead ([2]; of 11 mice) | mice moribund sacrificed ([2]; of 11 mice) | body weight gain [2] | Cold to touch skin, number of animals [2, 7] | Eye discharge, number of animals [2, 7] | Hypoactivity, number of animals [2, 7] | Lethargy and swollen head, number of mice [2, 7] | Swollen eye, number of animals [2, 7] | survival of animals through 30 days post exposure [2] | toxicity at the highest tested dose [3] | further results
1 | SCC1CNCCNC1 [DzCH2SH, (1,4-diazepan-6-yl)methanethiol] | did not show any signs of hygroscopicity | 11 days | 3 | one | 7 | did not gain body weights | one | 2 | 5 | one | 2 | increased survival | did not produce any toxicity | mortality rate at 8-days post-irradiation ([2]; 1000 mg/kg oral gavage prior to TBI 990 cGy): efficacious effects; Eye opacity, number of mice [2, 7]: one; Labored breathing, number of mice [2, 7]: one; eye cloudy, number of animals [2, 7]: 2; sunken eye, number of animals [2, 7]: 1
2 | CC(C)(S)C1CNCCN1 (stereo not drawn) [Compound 2Pip-2PrSH, 2-(piperazin-2-yl)propane-2-thiol] |  | 10 days | no animals survived | six | Five | did not gain body weights | 4 | one | 5 | one | one |  | did not produce any toxicity | Survival ([2]; 1000 mg/kg oral gavage 60+5 minutes prior to TBI 9.9 Gy (LD100/30), Day 30, 11 male mice per group): 0%
3 | CNCC(CS)CNC [PrC-210, 3-(methylamino)-2-((methylamino)methyl)propane-1-thiol, reference compound] | did not show any signs of hygroscopicity | 11 days | 4 |  | 7 | significantly higher |  | one | 5 |  | one | increased survival | did not produce any toxicity | rate of survival, control group versus treated mice [4]: control group demonstrates a reduced rate of survival compared to the mice treated; side effects compared with Amifostine [5]: less side effects than Amifostine; LD50 (radiation dose), control group versus treated mice [6]: control group demonstrates a lower LD50 compared to the mice treated; mean body weight ([2]; Day 9 after TBI 9.9 Gy): higher than body weights in the Groups 13, 15 and 16; Tremor, number of mice [2, 7]: 4
